According to US7906522B2, “2-aminoquinazoline derivatives” (Kyowa Hakko Kirin Co., Ltd, priority 2005, dated 2011):

Molecular target: T1, Activated human p38α (Homo sapiens, UniProt Q16539)
T1 construct: purchased Upstate Biotechnology Inc. 14-251
Test: p38MAP kinase inhibition test
Assay type: biochemical
Conditions: at a concentration of 1 μmol/L; substrate myelin basic protein, ATP 20 μmol/L, [γ-32P]ATP; read-out: enzyme inhibitory activity
In short: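 Radiometric kinase assay with myelin basic protein (20 μg/assay) as substrate, 20 μmol/L ATP plus [γ-32P]ATP, MOPS pH 7.2 with MgCl2 18.75 mmol/L. Reaction run 15 min at 30° C., stopped with phosphoric acid; 32P-MBP captured on phosphocellulose and counted by scintillation.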

T1 sequence (Q16539 whole entry): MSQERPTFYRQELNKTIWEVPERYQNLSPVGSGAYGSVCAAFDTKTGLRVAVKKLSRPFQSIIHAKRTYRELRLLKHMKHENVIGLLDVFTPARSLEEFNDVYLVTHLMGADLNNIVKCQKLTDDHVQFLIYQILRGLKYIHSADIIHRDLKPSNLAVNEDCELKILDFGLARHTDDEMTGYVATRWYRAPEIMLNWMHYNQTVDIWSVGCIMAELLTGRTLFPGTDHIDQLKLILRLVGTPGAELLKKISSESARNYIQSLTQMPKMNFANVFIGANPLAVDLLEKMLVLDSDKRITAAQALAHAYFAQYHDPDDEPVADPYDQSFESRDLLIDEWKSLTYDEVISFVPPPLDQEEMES

Row | SMILES | inhibition at 1 µM
1 | CCOC(=O)COc1cc2nc(NC(C)C)ncc2cc1-c1ccccc1Cl [Compound 32, 6-(2-Chlorophenyl)-7-(ethoxycarbonylmethyloxy)-2-isopropylaminoquinazoline] | ≥ 50%
2 | CC(C)Nc1ncc2cc(-c3ccccc3Cl)c(-c3cccc(Cl)c3)cc2n1 [Compound 43, 6-(2-Chlorophenyl)-7-(3-chlorophenyl)-2-isopropylaminoquinazoline] | ≥ 50%
3 | CC(C)Nc1ncc2cc(C(=O)c3cccc(F)c3)c(O)cc2n1 [Compound 132, 6-(3-Fluorobenzoyl)-7-hydroxy-2-(isopropylamino)quinazoline] | ≥ 50%
4 | COc1cc2nc(NC(C)C)ncc2cc1-c1ccccc1C(=O)O [Compound 185, 6-(2-Carboxyphenyl)-2-isopropylamino-7-methoxyquinazoline] | ≥ 50%
5 | CC(C)Nc1ncc2cc(-c3ccccc3Cl)c(-c3ccc(C(=O)O)cc3)cc2n1 [Compound 41, 7-(4-Carboxyphenyl)-6-(2-chlorophenyl)-2-isopropylaminoquinazoline] | ≥ 50%
6 | Cc1ccccc1-c1cc2cnc(N[C@@H](C)C3CCCCC3)nc2cc1O [Compound 172, (S)-2-(1-cyclohexylethylamino)-7-hydroxy-6-(2-methylphenyl)quinazoline] | ≥ 50%
7 | CC(C)Nc1ncc2cc(-c3ccccc3Cl)c(OCc3cccc(C(=O)O)c3)cc2n1 [Compound 29, 7-(3-Carboxyphenylmethyloxy)-6-(2-chlorophenyl)-2-isopropylaminoquinazoline] | ≥ 50%
8 | C=Cc1c(OC)c(-c2ccccc2Cl)cc2cnc(NC(C)C)nc12 [Compound 76, 6-(2-Chlorophenyl)-2-isopropylamino-7-methoxy-8-vinylquinazoline] | ≥ 50%
9 | CCOC(=O)N1CCC(Nc2ncc3cc(C(=O)c4ccccc4)c(O)cc3n2)CC1 [Compound 137, 6-Benzoyl-2-[1-(ethoxycarbonyl)piperidin-4-ylamino]-7-hydroxyquinazoline] | ≥ 50%
10 | COc1cc2nc(NC(C)C)ncc2cc1C(=O)c1cccc(C)c1 [Compound 114, 2-Isopropylamino-7-methoxy-6-(3-methylbenzoyl)quinazoline] | ≥ 50%
11 | CCS(=O)(=O)N[C@H]1CC[C@H](Nc2ncc3cc(-c4ccccc4Cl)c(OC)cc3n2)CC1 [Compound 147, 6-(2-Chlorophenyl)-2-[trans-4-(ethylsulfonylamino)cyclohexylamino]-7-methoxyquinazoline] | ≥ 50%
12 | CC(C)Nc1ncc2cc(-c3ccc(F)cc3F)c(O)c(-c3ccc(F)cc3)c2n1 [Compound 84, 6-(2,4-Difluorophenyl)-8-(4-fluorophenyl)-2-isopropylamino-7-hydroxyquinazoline] | ≥ 50%
13 | COc1cc2nc(NC3CCN(S(C)(=O)=O)CC3)ncc2cc1-c1ccccc1Cl [Compound 12, 6-(2-Chlorophenyl)-2-[1-(methylsulfonyl)piperidin-4-ylamino]-7-methoxyquinazoline] | ≥ 50%
14 | COc1cc2nc(NC(C)C)ncc2cc1-c1ccccc1NC(C)=O [Compound 56, 6-[2-(Acetylamino)phenyl]-2-isopropylamino-7-methoxyquinazoline] | ≥ 50%
15 | CCCOC(=O)c1c(O)c(-c2ccccc2Cl)cc2cnc(NC(C)C)nc12 [Compound 63, 6-(2-Chlorophenyl)-7-hydroxy-2-isopropylamino-8-(propoxycarbonyl)quinazoline] | ≥ 50%
16 | COc1cc2nc(NC3CCN(C(N)=O)CC3)ncc2cc1-c1ccccc1Cl [Compound 15, 2-(1-Carbamoylpiperidin-4-ylamino)-6-(2-chlorophenyl)-7-methoxyquinazoline] | ≥ 50%
17 | COc1cc2nc(N[C@H](C)C(C)(C)O)ncc2cc1-c1ccccc1Cl [Compound 7, (R)-6-(2-Chlorophenyl)-2-(2-hydroxy-1,2-dimethylpropylamino)-7-methoxyquinazoline] | ≥ 50%
18 | CCOC(=O)/C=C/c1c(OC)c(-c2ccccc2Cl)cc2cnc(NC(C)C)nc12 [Compound 73, 6-(2-Chlorophenyl)-8-[(E)-2-(ethoxycarbonyl)ethenyl]-7-methoxy-2-(isopropylamino)quinazoline] | ≥ 50%
19 | COc1cc2nc(NC(C)C)ncc2cc1-c1cc(NC(C)=O)ccc1CO [Compound 225, 6-[5-Acetylamino-2-(hydroxymethyl)phenyl]-2-isopropylamino-7-methoxyquinazoline] | ≥ 50%
20 | Cc1cc2nc(NC(C)C)ncc2cc1-c1cc(NC(=O)c2ccc[nH]2)ccc1CO [Compound 281, 6-{2-Hydroxymethyl-5-[(1H-pyrrol-2-yl)carbonylamino]phenyl}-2-isopropylamino-7-methylquinazoline] | ≥ 50%
21 | CC(C)Nc1ncc2cc(-c3ccccc3Cl)c(OCc3ccccc3)cc2n1 [Compound 27, 7-Benzyloxy-6-(2-chlorophenyl)-2-isopropylaminoquinazoline] | ≥ 50%

Row | SMILES | inhibition at 1 µM
22 | CC(C)Nc1ncc2cc(-c3cc(NC(=O)c4ccc[nH]4)ccc3O)ccc2n1 [Compound 267, 6-{2-Hydroxy-5-[(1H-pyrrol-2-yl)carbonylamino]phenyl}-2-(isopropylamino)quinazoline] | ≥ 50%
23 | CNc1ncc2cc(-c3cc(NC(=O)c4ccc[nH]4)ccc3C)c(OC)cc2n1 [Compound 251, 7-Methoxy-2-methylamino-6-{2-methyl-5-[(1H-pyrrol-2-yl)carbonylamino]phenyl}quinazoline] | ≥ 50%
24 | Cc1cccc(C)c1Nc1ncc2cc(-c3cccc(NC(=O)c4cccc(N(C)C)c4)c3)c(O)cc2n1 [Compound 314, 6-{3-[(3-Dimethylaminophenyl)carbonylamino]phenyl}-2-(2,6-dimethylanilino)-7-hydroxyquinazoline] | ≥ 50%
25 | CC(C)Nc1ncc2cc(-c3cccc(NC(=O)c4ccnc(N5CCOCC5)c4)c3)ccc2n1 [Compound 257, 2-Isopropylamino-6-{3-[(2-morpholinopyridin-4-yl)carbonylamino]phenyl}quinazoline] | ≥ 50%
26 | Cc1cccc(C(=O)c2cc3cnc(NC(C)C)nc3cc2O)c1 [Compound 118, 7-Hydroxy-2-isopropylamino-6-(3-methylbenzoyl)quinazoline] | ≥ 50%
27 | Cc1cc2nc(NC(C)C)ncc2cc1-c1cccc(NC(=O)c2ccnc(N3CCOCC3)c2)c1 [Compound 279, 2-Isopropylamino-7-methyl-6-{3-[(2-morpholinopyridin-4-yl)carbonylamino]phenyl}quinazoline] | ≥ 50%
28 | COc1cc2nc(NC(C)C)ncc2cc1-c1ccccc1C=O [Compound 57, 6-(2-Formylphenyl)-2-isopropylamino-7-methoxyquinazoline] | ≥ 50%
29 | CC(C)Nc1ncc2cc(-c3ccccc3Cl)c3oc(C(C)(C)O)cc3c2n1 [Compound 112, 6-(2-Chlorophenyl)-8-(1-hydroxy-1-methylethyl)-2-(isopropylamino)furo[2,3-h]quinazoline] | ≥ 50%
30 | CC(C)Nc1ncc2cc(-c3ccccc3Cl)c(OCC(=O)N(C)C)cc2n1 [Compound 37, 6-(2-Chlorophenyl)-7-(N,N-dimethylcarbamoylmethyloxy)-2-isopropylaminoquinazoline] | ≥ 50%
31 | CCS(=O)(=O)N1CCC(Nc2ncc3cc(-c4ccccc4Cl)c(OC)cc3n2)CC1 [Compound 142, 6-(2-Chlorophenyl)-2-[1-(ethylsulfonyl)piperidin-4-ylamino]-7-methoxyquinazoline] | ≥ 50%
32 | Cc1ccccc1C(=O)c1cc2cnc(NC(C)C)nc2cc1O [Compound 119, 7-Hydroxy-2-isopropylamino-6-(2-methylbenzoyl)quinazoline] | ≥ 50%
33 | CC(=O)Nc1ccc(C)c(-c2ccc3nc(NC(C)C)ncc3c2)c1 [Compound 254, 6-(5-Acetylamino-2-methylphenyl)-2-(isopropylamino)quinazoline] | ≥ 50%
34 | COc1ccccc1-c1cc2cnc(NC(C)C)nc2cc1OC [Compound 193, 2-Isopropylamino-7-methoxy-6-(2-methoxyphenyl)quinazoline] | ≥ 50%
35 | CC(=O)Nc1ccc(C)c(-c2cc3cnc(NC(C)C)nc3cc2O)c1 [Compound 289, 6-(5-Acetylamino-2-methylphenyl)-7-hydroxy-2-(isopropylamino)quinazoline] | ≥ 50%
36 | CC(C)Nc1ncc2cc(-c3ccccc3Cl)c(OCCCO)cc2n1 [Compound 24, 6-(2-Chlorophenyl)-7-(3-hydroxypropyloxy)-2-isopropylaminoquinazoline] | ≥ 50%
37 | CC(C)Nc1ncc2cc(C(=O)c3cc(F)cc(F)c3)c(O)cc2n1 [Compound 134, 6-(3,5-Difluorobenzoyl)-7-hydroxy-2-(isopropylamino)quinazoline] | ≥ 50%
38 | CC(C)Nc1ncc2cc(-c3ccccc3Cl)c(OCCO)cc2n1 [Compound 23, 6-(2-Chlorophenyl)-7-(2-hydroxyethyloxy)-2-isopropylaminoquinazoline] | ≥ 50%
39 | CC(C)Nc1ncc2cc(-c3cccc(NC(=O)c4ccc[nH]4)c3)ccc2n1 [Compound 258, 2-Isopropylamino-6-{3-[(1H-pyrrol-2-yl)carbonylamino]phenyl}quinazoline] | ≥ 50%
40 | COc1cc2nc(N[C@@H](C)C(C)C)ncc2cc1-c1ccccc1C [Compound 168, (S)-2-(3-methyl-2-butylamino)-7-methoxy-6-(2-methylphenyl)quinazoline] | ≥ 50%
41 | CON=Cc1ccccc1-c1cc2cnc(NC(C)C)nc2cc1OC [Compound 59, 2-Isopropylamino-7-methoxy-6-[2-(methoxyimino)phenyl]quinazoline] | ≥ 50%
42 | COc1cc2nc(NC(C)C)ncc2cc1-c1cccc(F)c1 [Compound 204, 6-(3-Fluorophenyl)-2-isopropylamino-7-methoxyquinazoline] | ≥ 50%
